Experimental data published in ChEMBL document CHEMBL3739316, “Novel orally active inhibitors of β-1,3-glucan synthesis derived from enfumafungin” (Bioorg Med Chem Lett, 2015).
Values after ≈ are worked out from the molar mass of the structure shown.

Key:
[1] = Oral bioavailability in mouse; type: ADME, organism-based; conditions: in vivo
Candida albicans [2] = experiment: Antifungal activity against Candida albicans MY1055 in DBA/2 mouse candidiasis model assessed as change in CFU per gram of kidney at 6.25 mg/kg, po bid after 4 days by Target Organ Kidney Assay relative to sham treated control; type: functional
Mus musculus [3] = experiment: Drug level in DBA/2J mouse treated with 13f at 10 mg/kg, po; type: ADME, organism-based; conditions: in vivo
Candida albicans [4] = experiment: Antifungal activity against Candida albicans MY1055 after 24 hrs by liquid microdilution assay; type: functional; conditions: MY1055, 24 h
Beta-1,3-glucan synthase = target: T1, Beta-1,3-glucan synthase (Candida albicans, UniProt O13383); experiment: Displacement of UDP-[3H]glucose from beta-1,3-glucan synthase in Candida albicans MY1055 microsomal membranes incubated for 2 hrs
T1 sequence (O13383 whole entry): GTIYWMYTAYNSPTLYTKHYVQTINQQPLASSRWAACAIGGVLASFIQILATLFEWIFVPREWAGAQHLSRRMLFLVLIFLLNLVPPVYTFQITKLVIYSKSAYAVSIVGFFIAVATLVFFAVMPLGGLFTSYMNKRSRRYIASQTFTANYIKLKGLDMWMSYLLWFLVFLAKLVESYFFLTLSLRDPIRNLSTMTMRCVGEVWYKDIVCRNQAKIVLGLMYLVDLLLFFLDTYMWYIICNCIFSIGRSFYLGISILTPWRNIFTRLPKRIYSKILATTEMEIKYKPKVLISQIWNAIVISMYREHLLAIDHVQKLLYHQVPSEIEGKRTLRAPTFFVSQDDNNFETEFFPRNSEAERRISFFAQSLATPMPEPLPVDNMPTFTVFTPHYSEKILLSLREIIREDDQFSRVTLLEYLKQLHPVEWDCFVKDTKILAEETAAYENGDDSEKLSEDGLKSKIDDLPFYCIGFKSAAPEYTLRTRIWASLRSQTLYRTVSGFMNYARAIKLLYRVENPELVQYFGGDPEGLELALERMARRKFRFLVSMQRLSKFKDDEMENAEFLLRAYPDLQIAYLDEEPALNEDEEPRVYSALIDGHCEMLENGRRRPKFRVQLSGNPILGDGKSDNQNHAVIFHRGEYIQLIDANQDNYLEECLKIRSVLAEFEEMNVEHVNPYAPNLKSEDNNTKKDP

Aspergillus fumigatus = experiment: Antifungal activity against Aspergillus fumigatus MF5668 after 24 hrs by liquid microdilution assay; type: functional; conditions: MF5668, 24 h, read-out: MEC
Candida albicans [5] = experiment: Antifungal activity against Candida albicans MY1055 after 24 hrs by liquid microdilution assay in presence of human serum; type: functional; conditions: MY1055, 24 h
Candida albicans [6] = experiment: Antifungal activity against Candida albicans MY1055 in DBA/2 mouse candidiasis model assessed as change in CFU per gram of kidney at 12.5 mg/kg, po bid after 4 days by Target Organ Kidney Assay relative to sham treated control; type: functional
Candida albicans [7] = experiment: Antifungal activity against Candida albicans MY1055 in DBA/2 mouse candidiasis model assessed as change in CFU per gram of kidney at 25 mg/kg, po bid after 4 days by Target Organ Kidney Assay relative to sham treated control; type: functional
Mus musculus [8] = experiment: Dose normalized AUC in orally dosed mouse; type: ADME, organism-based; conditions: in vivo, po
Candida albicans [9] = experiment: Antifungal activity against Candida albicans MY1055 in DBA/2N mouse candidiasis model assessed as mouse survival at 25 mg/kg, po bid after 7 days by Target Organ Kidney Assay relative to sham treated control; type: functional; conditions: 168 h
Mus musculus [10] = experiment: AUC (0 to 24 hrs) in DBA/2J mouse assessed as metabolite 13c at 10 mg/kg, po; type: ADME, organism-based; set-up: dose 10 mg/kg, time < 24 hr, route oral; conditions: in vivo
Candida albicans [11] = experiment: Antifungal activity against Candida albicans MY1055 in DBA/2N mouse candidiasis model assessed as reduction of fungal burden after 7 days; type: functional; conditions: MY1055, 168 h
Mus musculus [12] = experiment: AUC (0 to 24 hrs) in DBA/2J mouse assessed as metabolite 13e at 10 mg/kg, po; type: ADME, organism-based; set-up: dose 10 mg/kg, time < 24 hr, route oral; conditions: in vivo
Candida albicans [13] = experiment: Antifungal activity against Candida albicans MY1055 in DBA/2N mouse candidiasis model assessed as mouse survival at 12.5 mg/kg, po bid after 7 days by Target Organ Kidney Assay relative to sham treated control; type: functional; conditions: 168 h
Candida albicans [14] = experiment: Antifungal activity against Candida albicans MY1055 in DBA/2 mouse candidiasis model assessed as change in CFU per gram of kidney at 6.25 mg/kg, po bid after 7 days by Target Organ Kidney Assay relative to sham treated control; type: functional
Candida albicans [15] = experiment: Antifungal activity against Candida albicans MY1055 in DBA/2 mouse candidiasis model assessed as change in CFU per gram of kidney at 12.5 mg/kg, po bid after 7 days by Target Organ Kidney Assay relative to sham treated control; type: functional
Candida albicans [16] = experiment: Antifungal activity against Candida albicans MY1055 in DBA/2N mouse candidiasis model assessed as mouse survival at 6.25 mg/kg, po bid after 4 days by Target Organ Kidney Assay relative to sham treated control; type: functional; conditions: 96 h
Candida albicans [17] = experiment: Antifungal activity against Candida albicans MY1055 in DBA/2 mouse candidiasis model assessed as change in CFU per gram of kidney at 12.5 mg/kg, ip bid after 7 days by Target Organ Kidney Assay relative to sham treated control; type: functional
Candida albicans [18] = experiment: Antifungal activity against Candida albicans MY1055 in DBA/2 mouse candidiasis model assessed as change in CFU per gram of kidney at 25 mg/kg, po bid after 7 days by Target Organ Kidney Assay relative to sham treated control; type: functional
Candida albicans [19] = experiment: Antifungal activity against Candida albicans MY1055 in DBA/2N mouse candidiasis model assessed as mouse survival at 12.5 mg/kg, ip bid after 7 days by Target Organ Kidney Assay relative to sham treated control; type: functional; conditions: 168 h
[20] = AUC (0 to 24 hrs) in DBA/2J mouse at 10 mg/kg, po; type: ADME, organism-based; set-up: dose 10 mg/kg, time < 24 hr, route oral; conditions: in vivo
Mus musculus [21] = experiment: AUC (0 to 24 hrs) in DBA/2J mouse assessed as total metabolites at 10 mg/kg, po; type: ADME, organism-based; conditions: in vivo
Candida albicans [22] = experiment: Antifungal activity against Candida albicans MY1055 in DBA/2 mouse candidiasis model assessed as change in CFU per gram of kidney at 25 mg/kg, ip bid after 4 days by Target Organ Kidney Assay relative to sham treated control; type: functional
Candida albicans [23] = experiment: Antifungal activity against Candida albicans MY1055 in DBA/2 mouse candidiasis model assessed as change in CFU per gram of kidney at 12.5 mg/kg, ip bid after 4 days by Target Organ Kidney Assay relative to sham treated control; type: functional
Candida albicans [24] = experiment: Antifungal activity against Candida albicans MY1055 in DBA/2 mouse candidiasis model assessed as change in CFU per gram of kidney at 6.25 mg/kg, ip bid after 4 days by Target Organ Kidney Assay relative to sham treated control; type: functional
[25] = Oral bioavailability in rat; type: ADME, organism-based; conditions: in vivo
Rattus norvegicus = experiment: Dose normalized AUC in orally dosed rat; type: ADME, organism-based; conditions: in vivo, po

Row | SMILES | bioavailability [1] [%] | Activity (Candida albicans [2]) [deltalog10CFU] | MIC (Candida albicans [4]) [µg/mL] | IC50 (Beta-1,3-glucan synthase) [nM] | minimal effective concentration (Aspergillus fumigatus) [µg/mL] | MIC (Candida albicans [5]) [µg/mL] | Activity (Candida albicans [6]) [deltalog10CFU] | Activity (Candida albicans [7]) [deltalog10CFU] | AUC/dose (Mus musculus [8]) [µM·kg·h/mg] | survival at 25 mg/kg (Candida albicans [9]) [%] | AUC (Mus musculus [10]) [µM·h] | ED99 (Candida albicans [11]) [mg/kg] | survival at 12.5 mg/kg (Candida albicans [13]) [%] | Activity (Candida albicans [14]) [deltalog10CFU] | Activity (Candida albicans [15]) [deltalog10CFU] | survival at 6.25 mg/kg (Candida albicans [16]) [%] | Activity (Candida albicans [17]) [deltalog10CFU] | Activity (Candida albicans [18]) [deltalog10CFU] | survival at 12.5 mg/kg (Candida albicans [19]) [%] | AUC(0-t) at 24 h [20] [µM·h] | also measured
1 | CC(C)[C@@H](C)[C@@]1(C)CC[C@]2(C)[C@H]3CC[C@H]4C5(C)COC[C@@]4(C[C@@H](n4nnc(N)n4)[C@@H]5OC[C@](C)(N)C(C)C)C3=CC[C@@]2(C)[C@@H]1C(=O)O | 14 | -0.1 | < 0.03 | 3.05 | < 0.03 | 2 | -0.3 | -2.2 | 0.14 |  |  |  |  |  |  |  |  |  |  |  | Drug metabolism (Mus musculus [3]): metabolite_detected
2 | CC(C)[C@@H](C)[C@@]1(C)CC[C@]2(C)[C@H]3CC[C@H]4C5(C)COC[C@@]4(C[C@@H](n4nnc(N)n4)[C@@H]5OC[C@@](C)(C(C)C)N(C)C)C3=CC[C@@]2(C)[C@@H]1C(=O)O | 17 | -0.7 | 0.25 (≈ 0.366 µM) | 13.2 | < 0.03 | 8 | -2.5 | -2.6 | 0.15 | 100 | 0.11 | 9 | 100 | -1.19 | -2.38 | 40 | -3.36 | -2.75 | 100 | 1.27 | AUC (Mus musculus [12]): 1.23 µM·h; Drug uptake (Mus musculus [21]): 51.3%
3 | CCN[C@@](C)(CO[C@H]1[C@H](n2nnc(N)n2)C[C@@]23COCC1(C)[C@@H]2CC[C@H]1C3=CC[C@@]2(C)[C@H](C(=O)O)[C@@](C)([C@H](C)C(C)C)CC[C@]12C)C(C)C | 11 | -0.7 | 0.06 (≈ 0.0878 µM) | 7.32 | < 0.03 | 8 | -2.6 | -2.8 | 0.44 | 100 | 0.29 | 13 | 60 | 0.72 | -2.54 | 20 | -3.26 | -2.8 | 100 | 4.22 | Drug uptake (Mus musculus [21]): 6.4%
4 | CC(=O)O[C@@H]1C[C@@]23COCC(C)([C@H]1OCCN)[C@@H]2CC[C@H]1C3=CC[C@@]2(C)[C@H](C(=O)O)[C@@](C)([C@H](C)C(C)C)CC[C@]12C | 24 |  | 1 (≈ 1.74 µM) | 81.9 | < 0.03 | 32 |  |  | 0.54 |  |  |  |  |  |  |  |  |  |  |  | Activity (Candida albicans [22]): -0.7 deltalog10CFU; Activity (Candida albicans [23]): -0.4 deltalog10CFU; Activity (Candida albicans [24]): -0.3 deltalog10CFU
5 | CC(=O)O[C@@H]1C[C@@]23COCC(C)([C@H]1O[C@@H]1O[C@H](CO)[C@@H](O)[C@H](O)[C@H]1O)[C@@H]2CC[C@H]1C3=CC[C@@]2(C)[C@H](C(=O)O)[C@@](C)([C@H](C)C(C)C)CC[C@]12C |  |  | 0.25 (≈ 0.361 µM) | 86.6 | < 0.03 | 8 |  |  |  |  |  |  |  |  |  |  |  |  |  |  | bioavailability [25]: 1%; AUC/dose (Rattus norvegicus): 0.01 µM·kg·h/mg
6 | CN[C@@](C)(CO[C@H]1[C@H](n2nnc(N)n2)C[C@@]23COCC1(C)[C@@H]2CC[C@H]1C3=CC[C@@]2(C)[C@H](C(=O)O)[C@@](C)([C@H](C)C(C)C)CC[C@]12C)C(C)C | 9 | -1.5 | < 0.03 | 2.99 | < 0.03 | 4 | -1.9 | -2.5 | 0.12 | 100 | 0.005 | 19 | 20 | -0.61 | 0.89 | 20 | -3.89 | -2.54 | 100 | 1.06 | Drug metabolism (Mus musculus [3]): metabolite_detected; Drug uptake (Mus musculus [21]): 0.5%
7 | CCCN[C@@](C)(CO[C@H]1[C@H](n2nnc(N)n2)C[C@@]23COCC1(C)[C@@H]2CC[C@H]1C3=CC[C@@]2(C)[C@H](C(=O)O)[C@@](C)([C@H](C)C(C)C)CC[C@]12C)C(C)C | 25 | -1.1 | 0.06 (≈ 0.0861 µM) | 11.5 | < 0.03 | 16 | -2.4 | -3 | 0.35 | 100 | 0.36 | 10 | 100 | -2.04 | -1.53 | 40 | -2.98 | -2.9 | 100 | 3.13 | Drug uptake (Mus musculus [21]): 10.3%
